From PubChem BioAssay (NCI)
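Here, GI50 denotes the concentration required for 50% inhibition of growth. TGI: total growth inhibition.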

Experiments:
Test in all cases: growth of human tumour cells (NCI), 384-well format
MOLT-4 leukemia = system: MOLT-4 leukemia
SK-MEL-5 melanoma = system: SK-MEL-5 melanoma
A549 NSCLC = system: A549 NSCLC
MDA-MB-468 breast = system: MDA-MB-468 breast
NCI-H460 NSCLC = system: NCI-H460 NSCLC
OVCAR-8 ovarian = system: OVCAR-8 ovarian
MCF7 breast = system: MCF7 breast
NCI/ADR-RES ovarian = system: NCI/ADR-RES ovarian
ACHN renal = system: ACHN renal
HL-60(TB) leukemia = system: HL-60(TB) leukemia
OVCAR-5 ovarian = system: OVCAR-5 ovarian
SN12C renal = system: SN12C renal
UACC-257 melanoma = system: UACC-257 melanoma
HCT-116 colon = system: HCT-116 colon
MDA-MB-435 melanoma = system: MDA-MB-435 melanoma
M14 melanoma = system: M14 melanoma
RPMI-8226 leukemia = system: RPMI-8226 leukemia
OVCAR-4 ovarian = system: OVCAR-4 ovarian
A498 renal = system: A498 renal
MALME-3M melanoma = system: MALME-3M melanoma
NCI-H226 lung = system: NCI-H226 lung
K-562 leukemia = system: K-562 leukemia
BT-549 breast = system: BT-549 breast
SW-620 colon = system: SW-620 colon
SF-539 CNS = system: SF-539 CNS
LOX IMVI melanoma = system: LOX IMVI melanoma
DU-145 prostate = system: DU-145 prostate
NCI-H23 lung = system: NCI-H23 lung
RXF 393 renal = system: RXF 393 renal
HOP-62 NSCLC = system: HOP-62 NSCLC
TK-10 renal = system: TK-10 renal
786-0 renal = system: 786-0 renal
KM12 colon = system: KM12 colon
HCT-15 colon = system: HCT-15 colon
CCRF-CEM leukemia = system: CCRF-CEM leukemia
PC-3 prostate = system: PC-3 prostate
IGROV1 ovarian = system: IGROV1 ovarian
OVCAR-3 ovarian = system: OVCAR-3 ovarian
MDA-MB-231 breast = system: MDA-MB-231 breast
NCI-H322M lung = system: NCI-H322M lung
SK-OV-3 ovarian = system: SK-OV-3 ovarian
COLO 205 colon = system: COLO 205 colon
SNB-75 CNS = system: SNB-75 CNS
HCC-2998 colon = system: HCC-2998 colon
EKVX NSCLC = system: EKVX NSCLC
CAKI-1 renal = system: CAKI-1 renal
SK-MEL-2 melanoma = system: SK-MEL-2 melanoma

## C1=C/COCc2cc(ccc2OCCN2CCCC2)Nc2nccc(n2)-c2cccc(c2)COC/1
MOLT-4 leukemia
  GI50: 0.563 µM
  TGI: 1.29 µM
SK-MEL-5 melanoma
  GI50: 1.45 µM
  TGI: 2.77 µM
A549 NSCLC
  GI50: 1.46 µM
  TGI: 3.49 µM
MDA-MB-468 breast
  GI50: 1.66 µM
  TGI: 3.03 µM
NCI-H460 NSCLC
  GI50: 0.923 µM
  TGI: 2.22 µM
OVCAR-8 ovarian
  GI50: 1.29 µM
  TGI: 2.67 µM
MCF7 breast
  GI50: 0.521 µM
  TGI: 1.78 µM
NCI/ADR-RES ovarian
  GI50: 1.91 µM
  TGI: 3.99 µM
ACHN renal
  GI50: 0.87 µM
  TGI: 4.43 µM
HL-60(TB) leukemia
  GI50: 0.251 µM
  TGI: 0.684 µM
OVCAR-5 ovarian
  GI50: 0.778 µM
  TGI: 2.64 µM
SN12C renal
  GI50: 0.704 µM
  TGI: 2.01 µM
UACC-257 melanoma
  GI50: 0.649 µM
  TGI: 1.41 µM
HCT-116 colon
  GI50: 0.692 µM
  TGI: 2.36 µM
MDA-MB-435 melanoma
  GI50: 1.32 µM
  TGI: 2.73 µM
M14 melanoma
  GI50: 1.16 µM
  TGI: 2.39 µM
RPMI-8226 leukemia
  GI50: 1.66 µM
  TGI: 3.03 µM
OVCAR-4 ovarian
  GI50: 1.76 µM
  TGI: 3.61 µM
A498 renal
  GI50: 0.829 µM
  TGI: 2.85 µM
MALME-3M melanoma
  GI50: 0.829 µM
  TGI: 2.02 µM
NCI-H226 lung
  GI50: 1.14 µM
  TGI: 2.6 µM
K-562 leukemia
  GI50: 0.789 µM
  TGI: 2.14 µM
BT-549 breast
  GI50: 1.79 µM
  TGI: 3.2 µM
SW-620 colon
  GI50: 1.52 µM
  TGI: 3.4 µM
SF-539 CNS
  GI50: 1.7 µM
  TGI: 3.08 µM
LOX IMVI melanoma
  GI50: 0.842 µM
  TGI: 2.08 µM
DU-145 prostate
  GI50: 1.06 µM
  TGI: 3.43 µM
NCI-H23 lung
  GI50: 0.945 µM
  TGI: 2.25 µM
RXF 393 renal
  GI50: 1.21 µM
  TGI: 2.47 µM
HOP-62 NSCLC
  GI50: 1.4 µM
  TGI: 3.03 µM
TK-10 renal
  GI50: 1.33 µM
  TGI: 3.56 µM
786-0 renal
  GI50: 1.26 µM
  TGI: 2.62 µM
KM12 colon
  GI50: 0.321 µM
  TGI: 1.33 µM
HCT-15 colon
  GI50: 0.802 µM
  TGI: 2.31 µM
CCRF-CEM leukemia
  GI50: 0.705 µM
  TGI: 1.79 µM
PC-3 prostate
  GI50: 1.27 µM
  TGI: 3.25 µM
IGROV1 ovarian
  GI50: 0.811 µM
  TGI: 2.94 µM
OVCAR-3 ovarian
  GI50: 0.988 µM
  TGI: 2.27 µM
MDA-MB-231 breast
  GI50: 1.19 µM
  TGI: 2.92 µM
NCI-H322M lung
  GI50: 1.01 µM
  TGI: 2.47 µM
SK-OV-3 ovarian
  GI50: 0.888 µM
  TGI: 2.35 µM
COLO 205 colon
  GI50: 1.09 µM
  TGI: 2.47 µM
SNB-75 CNS
  GI50: 1.61 µM
  TGI: 2.98 µM
HCC-2998 colon
  GI50: 1.35 µM
  TGI: 2.72 µM
EKVX NSCLC
  GI50: 1.56 µM
  TGI: 3.37 µM
CAKI-1 renal
  GI50: 0.428 µM
  TGI: 1.71 µM
SK-MEL-2 melanoma
  GI50: 0.625 µM
  TGI: 1.79 µM
